The assay deals with S. aureus ATCC 29213. The assay can be described thus: In vitro susceptibility test, antimicrobial dilution method (CLSI), MIC. Format: cell-based. The settings on record: Staphylococcus aureus, ATCC29213, read-out: MIC (Minimum Inhibitory Concentration). On the procedure:
For all the tests performed, there was a positive control of antifungal activity using fluconazole (for Malassezia) and ceftriaxone (for the bacterial strains) and a negative control (absence of the compounds) wherein correct microbial growth was evaluated.

Converted amounts (≈) assume the structure as drawn.

In the case of `C[C@@H]1O[C@@H](O[C@@H]2[C@@H](O)[C@H](OCCc3ccc(O)c(O)c3)O[C@H](CO)[C@H]2OC(=O)/C=C/c2ccc(O)c(O)c2)[C@H](O)[C@H](O)[C@H]1O` [Verbascoside, verbascoside], the MIC was determined as 3000 µg/mL (≈ 4.8 mM).
